The Kd is the constant that tells how readily two partners part at equilibrium. A low value points to tighter binding.

Assay [1] addresses T1, RARβ (Homo sapiens, UniProt P10826).
T1 sequence (P10826 1-448 isoform P10826-2): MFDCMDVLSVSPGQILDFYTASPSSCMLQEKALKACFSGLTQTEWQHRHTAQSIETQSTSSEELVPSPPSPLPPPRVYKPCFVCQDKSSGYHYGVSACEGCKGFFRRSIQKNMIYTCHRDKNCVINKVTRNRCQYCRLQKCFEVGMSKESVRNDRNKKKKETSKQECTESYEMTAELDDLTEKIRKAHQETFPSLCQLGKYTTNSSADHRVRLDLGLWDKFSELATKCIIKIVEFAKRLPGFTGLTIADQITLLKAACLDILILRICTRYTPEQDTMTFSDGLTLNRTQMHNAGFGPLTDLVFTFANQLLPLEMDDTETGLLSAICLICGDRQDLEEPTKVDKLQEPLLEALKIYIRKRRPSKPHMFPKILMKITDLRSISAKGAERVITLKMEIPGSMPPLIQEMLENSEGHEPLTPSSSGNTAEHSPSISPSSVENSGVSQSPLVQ
Nature of the assay: RAR binding, RARβ. The conditions noted are these: Kd from IC50 by Cheng-Prussof equation. As for the experimental part: (§1) Non-specific binding was defined as that binding remaining in the presence of 500 nM of the appropriate unlabelled compound. At the end of the incubation period, bound from free ligand were separated. The amount of bound tritiated retinoids was determined by liquid scintillation counting of an aliquot (700 μL) of the supernatant fluid or the hydroxylapatite pellet.
(§2) After correcting for non-specific binding, IC50 values were determined. […] The IC50 value was determined graphically from a log-logit plot of the data. The Kd values were determined by application of the Cheng-Prussof equation to the IC50 values, the labeled ligand concentration and the Kd of the labeled ligand.

In assay [2] the target is T2, RARα (Homo sapiens, UniProt P10276).
T2 sequence (P10276 1-462): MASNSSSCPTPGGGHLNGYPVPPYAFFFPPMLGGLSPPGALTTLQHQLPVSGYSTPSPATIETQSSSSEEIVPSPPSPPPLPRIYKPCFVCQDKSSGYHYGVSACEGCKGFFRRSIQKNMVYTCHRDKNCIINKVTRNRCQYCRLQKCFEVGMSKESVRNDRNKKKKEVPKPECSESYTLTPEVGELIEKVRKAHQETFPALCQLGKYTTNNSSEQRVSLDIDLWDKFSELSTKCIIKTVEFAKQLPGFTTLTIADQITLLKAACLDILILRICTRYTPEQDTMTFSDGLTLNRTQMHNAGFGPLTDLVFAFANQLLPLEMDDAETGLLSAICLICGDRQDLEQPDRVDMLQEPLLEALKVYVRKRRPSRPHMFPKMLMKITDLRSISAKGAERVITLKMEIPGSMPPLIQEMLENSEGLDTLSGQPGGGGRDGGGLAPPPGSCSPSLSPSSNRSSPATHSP
Put plainly: RAR binding, RARα. To be noted: Kd from IC50 by Cheng-Prussof equation. The protocol: as §1, §2

The target in assay [3] is T3, RARγ (Homo sapiens, UniProt P13631).
T3 sequence (P13631 1-454): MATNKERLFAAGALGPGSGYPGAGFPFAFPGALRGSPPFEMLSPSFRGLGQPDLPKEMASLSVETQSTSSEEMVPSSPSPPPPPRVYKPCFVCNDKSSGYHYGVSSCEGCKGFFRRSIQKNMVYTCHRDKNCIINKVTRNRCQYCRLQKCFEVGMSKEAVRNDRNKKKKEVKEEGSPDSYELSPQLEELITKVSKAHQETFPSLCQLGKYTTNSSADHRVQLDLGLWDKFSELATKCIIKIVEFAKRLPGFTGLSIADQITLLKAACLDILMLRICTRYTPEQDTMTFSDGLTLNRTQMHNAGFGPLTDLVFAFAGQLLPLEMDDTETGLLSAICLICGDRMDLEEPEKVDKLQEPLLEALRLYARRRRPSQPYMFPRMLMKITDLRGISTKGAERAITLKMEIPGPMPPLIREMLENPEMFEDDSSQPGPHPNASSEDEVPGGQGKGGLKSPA
Nature of the assay: RAR binding, RARγ. To be noted: Kd from IC50 by Cheng-Prussof equation. The protocol: as §1, §2

Assay [4] relates to RARs. Nature of the assay: co-transfection assay, activity on RARs (overall statement). Type of assay: cell-based, human. The conditions noted are these: comparison compound. As for the experimental part: Utilizing the "cis-trans" or "co-transfection" assay described by Evans et al., Science, 240:889-95 (May 13, 1988), the disclosure of which is herein incorporated by reference, the RAR antagonist compounds of the present invention were tested and found to have strong, specific activity as antagonists of RARs in the presence of RAR agonists. This assay is described in further detail in U.S. Pat. Nos. 4,981,784 and 5,071,773, the disclosures of which are incorporated herein by reference.
In the co-transfection assay, a cloned cDNA for an IR (e.g., human RARα:, RARβ, RXRγ) under the control of a constitutive promoter (e.g., the SV 40 promoter) is introduced by transfection (a procedure to induce cells to take up foreign genes) into a background cell substantially devoid of endogenous IRs. This introduced gene directs the recipient cells to make the IR protein of interest. A second gene is also introduced (co-transfected) into the same cells in conjunction with the IR gene. […]
The co-transfection assay can detect small molecule agonists or antagonists of target IRs. […] This activity can be conveniently measured, e.g., by increasing luciferase production, which reflects compound-dependent, IR-mediated increases in reporter transcription. […]

Turning to `COc1c(C(C)(C)C)cc(/C(C)=C/C=C/C(C)=C/C(=O)O)cc1C(C)(C)C` [A, reference compound], the Kd in assay [1] was 0.4 nM; in assay [2], 1 nM; in assay [3], 0.5 nM. Besides, in assay [4], the “type of activity on RAR (in words)” value is “displays only activity as an RAR? agonist”.

The values above are taken from patent US5998654A, “Retinoic acid receptor antagonist compounds and methods” (Ligand Pharmaceuticals Incorporated, priority 1997, dated 1999).
